Experimental data: PubChem BioAssay AID2060905 (Molecular Pharmacology Branch, DTP, NCI, 2025)

Test system: 282377-053-R-J1-PDC complex spheroid viability
Experiment: Anticancer human tumor 282377-053-R-J1-PDC patient-derived colon adenocarcinoma cell line growth inhibition [RAS]
Details: for IC50: curve of first compound; for viability, T/C: stronger effect = lower value
Method in brief: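 Agents were tested in combination matrices in half-log decrements from a top concentration at or near clinical Cmax (10 microM if undetermined). Targets were multi-cell spheroids of tumour lines plus HUVEC and MSC stromal cells.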
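Note: spheroids exposed to agents for seven days before readout.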
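Throughout, for viability, T/C: luminescence viability as percent of DMSO vehicle control wells.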

CC(=O)OC12COC1CC(O)C1(C)C(=O)C(O)C3=C(C)C(OC(=O)C(O)C(NC(=O)OC(C)(C)C)c4ccccc4)CC(O)(C(OC(=O)c4ccccc4)C21)C3(C)C (centres undefined) + C=CC(=O)N1CCN(c2nc(OCC3CCCN3C)nc3c(F)c(-c4nc(N)cc(C)c4C(F)(F)F)c(Cl)cc23)C(C)C1 was tested, and the IC50 (second compound 0.00316 µM) was under 31.6 nM, the IC50 (second compound 0.01 µM) was under 31.6 nM and the IC50 (second compound 0.0316 µM) was under 31.6 nM. The IC50 (second compound 0.1 µM) was under 31.6 nM, the IC50 (second compound 0.316 µM) was under 31.6 nM and the IC50 (second compound 1 µM) was under 31.6 nM. The viability, T/C (second compound 0.00316 µM, first compound 0.0316 µM) was 24.3%, the viability, T/C (second compound 0.00316 µM, first compound 0.1 µM) was 19.9% and the viability, T/C (second compound 0.00316 µM, first compound 0.316 µM) was 16.3%. It also gave a viability, T/C (second compound 0.00316 µM, first compound 1 µM) of 29.4%, a viability, T/C (second compound 0.00316 µM, first compound 3.16 µM) of 39.7% and a viability, T/C (second compound 0.00316 µM, first compound 10 µM) of 54.2%. For the same compound, the viability, T/C (second compound 0.01 µM, first compound 0.0316 µM) was 25.9%, the viability, T/C (second compound 0.01 µM, first compound 0.1 µM) was 18% and the viability, T/C (second compound 0.01 µM, first compound 0.316 µM) was 22.7%. For the same compound, the viability, T/C (second compound 0.01 µM, first compound 1 µM) was 27.5%, the viability, T/C (second compound 0.01 µM, first compound 3.16 µM) was 38.6% and the viability, T/C (second compound 0.01 µM, first compound 10 µM) was 51.8%. It also gave a viability, T/C (second compound 0.0316 µM, first compound 0.0316 µM) of 22.9%, a viability, T/C (second compound 0.0316 µM, first compound 0.1 µM) of 20.5% and a viability, T/C (second compound 0.0316 µM, first compound 0.316 µM) of 18.1%. The viability, T/C (second compound 0.0316 µM, first compound 1 µM) was 26.9%, the viability, T/C (second compound 0.0316 µM, first compound 3.16 µM) was 34.2% and the viability, T/C (second compound 0.0316 µM, first compound 10 µM) was 57.8%. For the same compound, the viability, T/C (second compound 0.1 µM, first compound 0.0316 µM) was 24.1%, the viability, T/C (second compound 0.1 µM, first compound 0.1 µM) was 21.2% and the viability, T/C (second compound 0.1 µM, first compound 0.316 µM) was 20.1%. It also gave a viability, T/C (second compound 0.1 µM, first compound 1 µM) of 28.1%, a viability, T/C (second compound 0.1 µM, first compound 3.16 µM) of 38.4% and a viability, T/C (second compound 0.1 µM, first compound 10 µM) of 57.3%. For the same compound, the viability, T/C (second compound 0.316 µM, first compound 0.0316 µM) was 22%, the viability, T/C (second compound 0.316 µM, first compound 0.1 µM) was 21.6% and the viability, T/C (second compound 0.316 µM, first compound 0.316 µM) was 24.1%. The viability, T/C (second compound 0.316 µM, first compound 1 µM) was 25.5%, the viability, T/C (second compound 0.316 µM, first compound 3.16 µM) was 45.7% and the viability, T/C (second compound 0.316 µM, first compound 10 µM) was 53.6%. For the same compound, the viability, T/C (second compound 1 µM, first compound 0.0316 µM) was 27.8%, the viability, T/C (second compound 1 µM, first compound 0.1 µM) was 19.3% and the viability, T/C (second compound 1 µM, first compound 0.316 µM) was 28.1%. For the same compound, the viability, T/C (second compound 1 µM, first compound 1 µM) was 38%, the viability, T/C (second compound 1 µM, first compound 3.16 µM) was 44% and the viability, T/C (second compound 1 µM, first compound 10 µM) was 58.6%.

In the case of CC1(C)CCC(Nc2ncc(C(F)(F)F)c(-c3c[nH]c4c(P(C)(C)=O)c(C#N)ccc34)n2)CN1 (centres undefined) + C=CC(=O)N1CCN(c2nc(OCC3CCCN3C)nc3c(F)c(-c4nc(N)cc(C)c4C(F)(F)F)c(Cl)cc23)C(C)C1, the IC50 (second compound 0.00316 µM) is reported as over 300 nM, the IC50 (second compound 0.01 µM) is reported as over 300 nM and the IC50 (second compound 0.0316 µM) is reported as over 300 nM. It also gave an IC50 (second compound 0.1 µM) of over 300 nM, an IC50 (second compound 0.316 µM) of over 300 nM and an IC50 (second compound 1 µM) of over 300 nM. It also gave a viability, T/C (second compound 0.00316 µM, first compound 0.000949 µM) of 114%, a viability, T/C (second compound 0.00316 µM, first compound 0.003 µM) of 120% and a viability, T/C (second compound 0.00316 µM, first compound 0.00949 µM) of 79.9%. For the same compound, the viability, T/C (second compound 0.00316 µM, first compound 0.03 µM) was 51.3%, the viability, T/C (second compound 0.00316 µM, first compound 0.0949 µM) was 61.1% and the viability, T/C (second compound 0.00316 µM, first compound 0.3 µM) was 55.6%. It also gave a viability, T/C (second compound 0.01 µM, first compound 0.000949 µM) of 123%, a viability, T/C (second compound 0.01 µM, first compound 0.003 µM) of 88.7% and a viability, T/C (second compound 0.01 µM, first compound 0.00949 µM) of 85.1%. It also gave a viability, T/C (second compound 0.01 µM, first compound 0.03 µM) of 64.5%, a viability, T/C (second compound 0.01 µM, first compound 0.0949 µM) of 58.8% and a viability, T/C (second compound 0.01 µM, first compound 0.3 µM) of 56.1%. The viability, T/C (second compound 0.0316 µM, first compound 0.000949 µM) was 91.7%, the viability, T/C (second compound 0.0316 µM, first compound 0.003 µM) was 90.8% and the viability, T/C (second compound 0.0316 µM, first compound 0.00949 µM) was 72.3%. The viability, T/C (second compound 0.0316 µM, first compound 0.03 µM) was 59.6%, the viability, T/C (second compound 0.0316 µM, first compound 0.0949 µM) was 64.8% and the viability, T/C (second compound 0.0316 µM, first compound 0.3 µM) was 56.1%. It also gave a viability, T/C (second compound 0.1 µM, first compound 0.000949 µM) of 105%, a viability, T/C (second compound 0.1 µM, first compound 0.003 µM) of 101% and a viability, T/C (second compound 0.1 µM, first compound 0.00949 µM) of 91.3%. For the same compound, the viability, T/C (second compound 0.1 µM, first compound 0.03 µM) was 66.3%, the viability, T/C (second compound 0.1 µM, first compound 0.0949 µM) was 73.1% and the viability, T/C (second compound 0.1 µM, first compound 0.3 µM) was 61.8%. For the same compound, the viability, T/C (second compound 0.316 µM, first compound 0.000949 µM) was 90.2%, the viability, T/C (second compound 0.316 µM, first compound 0.003 µM) was 102% and the viability, T/C (second compound 0.316 µM, first compound 0.00949 µM) was 87.9%. It also gave a viability, T/C (second compound 0.316 µM, first compound 0.03 µM) of 65.1%, a viability, T/C (second compound 0.316 µM, first compound 0.0949 µM) of 58.5% and a viability, T/C (second compound 0.316 µM, first compound 0.3 µM) of 67.1%. It also gave a viability, T/C (second compound 1 µM, first compound 0.000949 µM) of 92.9%, a viability, T/C (second compound 1 µM, first compound 0.003 µM) of 112% and a viability, T/C (second compound 1 µM, first compound 0.00949 µM) of 86.8%. For the same compound, the viability, T/C (second compound 1 µM, first compound 0.03 µM) was 61.6%, the viability, T/C (second compound 1 µM, first compound 0.0949 µM) was 67% and the viability, T/C (second compound 1 µM, first compound 0.3 µM) was 71.8%.
